Test results published in patent publication US20240109881A1, “Heteroaryl Compounds as Ligand Directed Degraders of IRAK4” (Bristol-Myers Squibb Company, priority 2022, published 2024).

Target: T1, IRAK4 (Homo sapiens, UniProt Q9NWZ3)
T1 construct: endogenous in cells; host or cells: THP-1 cells
T1 sequence (Q9NWZ3 1-460): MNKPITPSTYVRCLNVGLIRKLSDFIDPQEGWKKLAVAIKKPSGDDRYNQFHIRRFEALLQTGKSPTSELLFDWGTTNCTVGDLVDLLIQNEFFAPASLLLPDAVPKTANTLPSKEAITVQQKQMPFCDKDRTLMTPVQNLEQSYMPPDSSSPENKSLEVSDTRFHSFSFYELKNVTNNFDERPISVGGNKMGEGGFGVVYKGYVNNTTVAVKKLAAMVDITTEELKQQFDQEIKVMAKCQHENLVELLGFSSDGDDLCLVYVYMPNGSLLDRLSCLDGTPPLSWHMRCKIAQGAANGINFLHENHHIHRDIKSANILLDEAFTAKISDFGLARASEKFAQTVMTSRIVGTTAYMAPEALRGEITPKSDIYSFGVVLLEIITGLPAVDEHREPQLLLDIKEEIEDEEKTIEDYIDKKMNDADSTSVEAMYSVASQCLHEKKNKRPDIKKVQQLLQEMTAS
Test: LVL THP1 HTRF (THP1 Homogeneous Time Resolved Fluorescence)
Format: cell-based
Conditions: THP1 cells, 18 h incubation with compound; for DC50: read-out: LVL THP1 HTRF EC50
Method in brief: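 IRAK4 HTRF read-out (665/615 nm ratio, anti-IRAK4 d2 acceptor and K donor, 18 h dark incubation at room temperature) on lysates of THP-1 cells. Cells were treated 18 h at 37° C. with 20 nL compound in DMSO, in colorless RPMI with 10% FBS, with a duplicate CTG plate.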

Row | SMILES | LVL THP1 HTRF YMIN | DC50
1 | C[C@H](C#N)Nc1cc(-n2ncc3cc(C#N)cnc32)ncc1-n1cc([C@H]2CC[C@H](CCN3CCCN(c4ccc(N5CCC(=O)NC5=O)cc4)CC3)CC2)nn1 [P-355] | 58.0% | 327 nM
2 | C[C@H](C#N)Nc1cc(-n2ncc3cc(C#N)cnc32)ncc1-n1cc([C@H]2CC[C@H](CCN3CCN(c4ccc(N5CCC(=O)NC5=O)cc4)[C@@H](C)C3)CC2)nn1 [P-356] | 8.6% | 40.6 nM
3 | C[C@H](C#N)Nc1cc(-n2ncc3cc(C#N)cnc32)ncc1-n1cc([C@H]2CC[C@H](CCN3CCN(c4ccc(N5CCC(=O)NC5=O)cn4)[C@@H](C)C3)CC2)nn1 [P-357] | 26.7% | 179 nM
4 | C[C@H](C#N)Nc1cc(-n2ncc3cc(C#N)cnc32)ncc1-n1cc([C@H]2CC[C@H](CCN3CCN(c4ccc(N5CCC(=O)NC5=O)cc4)[C@H](C)C3)CC2)nn1 [P-358] | 0.6% | 4.8 nM
5 | C[C@H](C#N)Nc1cc(-n2ncc3cc(C#N)cnc32)ncc1-n1cc([C@H]2CC[C@H](CCN3CCN(c4ccc(N5CCC(=O)NC5=O)cn4)[C@H](C)C3)CC2)nn1 [P-359] | −1.9% | 2.5 nM
6 | Cc1cc(N2CCC(=O)NC2=O)ccc1N1CCN(CC[C@H]2CC[C@H](c3cn(-c4cnc(-n5ncc6cc(C#N)cnc65)cc4N[C@H](C)C#N)nn3)CC2)CC1 [P-360] | 4.5% | 27.6 nM
7 | C[C@H](C#N)Nc1cc(-n2ncc3cc(C#N)cnc32)ncc1-n1cc([C@H]2CC[C@H](CCN3CCN(c4cccc5c(N6CCC(=O)NC6=O)cncc45)CC3)CC2)nn1 [P-361] | 1.2% | 5 nM
8 | C[C@H](C#N)Nc1cc(-n2ncc3cc(C#N)cnc32)ncc1-n1cc([C@H]2CC[C@H](CCN3CCN(c4cccc5c(N6CCC(=O)NC6=O)nn(C)c45)CC3)CC2)nn1 [P-362] | 14.9% | 238 nM
9 | Cc1cc(N2CCN(CC[C@H]3CC[C@H](c4cn(-c5cnc(-n6ncc7cc(C#N)cnc76)cc5N[C@H](C)C#N)nn4)CC3)CC2)ccc1N1CCC(=O)NC1=O [P-363] | 5.0% | 7.6 nM
10 | C[C@H](C#N)Nc1cc(-n2ncc3cc(C#N)cnc32)ncc1-n1cc([C@H]2CC[C@H](CCN3CCN(c4ccc(N5CCC(=O)NC5=O)c(Cl)c4)CC3)CC2)nn1 [P-364] | 3.1% | 1.8 nM
11 | C[C@H](C#N)Nc1cc(-n2ncc3cc(C#N)cnc32)ncc1-n1cc([C@H]2CC[C@H](CCN3CCN(c4ccc(N5CCC(=O)NC5=O)c(F)c4)CC3)CC2)nn1 [P-365] | 2.0% | 2.3 nM
12 | C[C@H](C#N)Nc1cc(-n2ncc3cc(C#N)cnc32)ncc1-n1cc([C@H]2CC[C@H](CCN3CCN(c4ccc(N5CCC(=O)NC5=O)cc4)CC3)CC2)nn1 [P-366] | 2.0% | 10 nM
13 | C[C@H](C#N)Nc1cc(-n2ncc3cc(C#N)cnc32)ncc1-n1cc([C@H]2CC[C@H](CCN3CCN(c4ccc(N5CCC(=O)NC5=O)cc4F)CC3)CC2)nn1 [P-367] | 7.9% | 116 nM
14 | C[C@H](C#N)Nc1cc(-n2ncc3cc(C#N)cnc32)ncc1-n1cc([C@H]2CC[C@H](CCN3CCN(c4ccc(NC5CCC(=O)NC5=O)cc4)CC3)CC2)nn1 (stereo partly shown) [P-368] | 2.9% | 4.4 nM
15 | C[C@H](C#N)Nc1cc(-n2ncc3cc(C#N)cnc32)ncc1-n1cc([C@H]2CC[C@H](CCN3CCN(c4ccc5c(N6CCC(=O)NC6=O)nn(C)c5c4)CC3)CC2)nn1 [P-369] | 3.0% | 2.2 nM
16 | C[C@H](C#N)Nc1cc(-n2ncc3cc(C#N)cnc32)ncc1-n1cc([C@H]2CC[C@H](CCN3CCN(c4ccc(N5CCC(=O)NC5=O)nc4)CC3)CC2)nn1 [P-370] | 1.2% | 30.5 nM

Row | SMILES | LVL THP1 HTRF YMIN | DC50
17 | C[C@H](C#N)Nc1cc(-n2ncc3cc(C#N)cnc32)ncc1-n1cc([C@H]2CC[C@H](CCN3CCN(c4ccc(N5CCC(=O)NC5=O)cn4)CC3)CC2)nn1 [P-371] | 4.1% | 8.7 nM
18 | C[C@H](C#N)Nc1cc(-n2ncc3cc(C#N)cnc32)ncc1-n1cc([C@H]2CC[C@H](CCN3CCN(c4ncc(N5CCC(=O)NC5=O)s4)CC3)CC2)nn1 [P-372] | 40.1% | 235 nM
19 | C[C@H](C#N)Nc1cc(-n2ncc3cc(Cl)cnc32)ncc1-n1cc([C@H]2CC[C@H](CCN3CCN(c4ccc(C5CCC(=O)NC5=O)cc4)CC3)CC2)nn1 (stereo partly shown) [P-375] | 2.5% | 6.5 nM
20 | C[C@H](C#N)Nc1nc(-n2ncc3cc(C#N)cnc32)ncc1C(=O)N[C@H]1CC[C@H](CCN2CCN(c3ccc(C4CCC(=O)NC4=O)cc3)CC2)CC1 (stereo partly shown) [P-376] | 7.2% | 30.3 nM
21 | C[C@H](C#N)Nc1nc(-n2ncc3cc(C#N)cnc32)ncc1-n1cc([C@H]2CC[C@H](CCN3CCN(c4ccc(C5CCC(=O)NC5=O)cc4)CC3)CC2)nn1 (stereo partly shown) [P-377] | 3.4% | 8.3 nM
22 | C[C@H](C#N)Nc1cc(Nc2ncc(C#N)cc2Cl)ncc1-n1cc([C@H]2CC[C@H](CCN3CCN(c4ccc(N5CCC(=O)NC5=O)cc4)[C@H](C)C3)CC2)nn1 [P-378] | 2.2% | 13 nM
23 | C[C@H](C#N)Nc1cc(Nc2ncc(C#N)cc2Cl)ncc1-n1cc([C@H]2CC[C@H](CCN3CCN(c4ccc(C5CCC(=O)NC5=O)cc4)CC3)CC2)nn1 (stereo partly shown) [P-379] | 1.8% | 4 nM
24 | C[C@H](C#N)Nc1cc(Nc2ncc(Cl)cc2Cl)ncc1-n1cc([C@H]2CC[C@H](CCN3CCN(c4ccc(C5CCC(=O)NC5=O)cc4)CC3)CC2)nn1 (stereo partly shown) [P-380] | 12.1% | 89.4 nM
25 | C[C@H](C#N)Nc1cc(Nc2ncc(C#N)cc2F)ncc1-n1cc([C@H]2CC[C@H](CCN3CCN(c4ccc(C5CCC(=O)NC5=O)cc4)CC3)CC2)nn1 (stereo partly shown) [P-381] | 2.1% | 8.3 nM
26 | C[C@H](C#N)Nc1cc(Nc2ncc(F)cc2F)ncc1-n1cc([C@H]2CC[C@H](CCN3CCN(c4ccc(C5CCC(=O)NC5=O)cc4)CC3)CC2)nn1 (stereo partly shown) [P-382] | 4.1% | 28 nM
27 | C[C@H](C#N)Nc1cc(Nc2ncncc2F)ncc1-n1cc([C@H]2CC[C@H](CCN3CCN(c4ccc(C5CCC(=O)NC5=O)cc4)CC3)CC2)nn1 (stereo partly shown) [P-383] | 5.6% | 31.3 nM
28 | C[C@H](C#N)Nc1cc(Nc2ncc(C#N)cc2Cl)ncc1-n1cc([C@H]2CC[C@H](CCN3CCN(c4ccc(N5CCC(=O)NC5=O)cc4)CC3)CC2)nn1 [P-384] | 6.5% | 45.4 nM
29 | C[C@H](C#N)Nc1cc(Nc2ncc(C#N)cc2F)ncc1-n1cc([C@H]2CC[C@H](CCN3CCN(c4ccc(N5CCC(=O)NC5=O)cc4)[C@H](C)C3)CC2)nn1 [P-385] | −1.9% | 8.7 nM
30 | C[C@H](C#N)Nc1cc(Nc2ncc(C#N)cc2F)ncc1-n1cc([C@H]2CC[C@H](CCN3CCN(c4ccc(N5CCC(=O)NC5=O)cc4)CC3)CC2)nn1 [P-386] | 6.7% | 24.2 nM
31 | C[C@H](C#N)Nc1cc(Nc2ncc(C#N)cn2)ncc1-n1cc([C@H]2CC[C@H](CCN3CCN(c4ccc(N5CCC(=O)NC5=O)cc4)[C@H](C)C3)CC2)nn1 [P-387] | 9.8% | 14.1 nM
32 | C[C@H](C#N)Nc1cc(Nc2ncc(C#N)cn2)ncc1-n1cc([C@H]2CC[C@H](CCN3CCN(c4ccc(C5CCC(=O)NC5=O)cc4)CC3)CC2)nn1 (stereo partly shown) [P-388] | 3.5% | 11.1 nM
